Test system: 454973-116-R2-J3-PDC spheroids, viability, % test/control
Test: Anticancer human tumor 454973-116-R2-J3-PDC patient-derived pancreatic carcinoma cell line growth inhibition [GQUAD]
Details: spheroids with HUVEC and MSC; for IC50: curve of first compound; for viability, T/C: stronger effect = lower value
Method in brief: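 Multi-cell-type spheroids of tumor cells with HUVEC and mesenchymal stem cells, treated with drug combinations. Concentrations descend in half-log steps from near clinical Cmax, or from 10 microM where Cmax is unknown; viability read-out.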

[1] = second compound 0.0316 µM, first compound 0.0316 µM
[2] = second compound 0.0316 µM, first compound 0.316 µM
[3] = second compound 0.1 µM, first compound 0.0316 µM
[4] = second compound 0.1 µM, first compound 0.316 µM
[5] = second compound 0.316 µM, first compound 0.0316 µM
[6] = second compound 0.316 µM, first compound 0.316 µM
[7] = second compound 1 µM, first compound 0.0316 µM
[8] = second compound 1 µM, first compound 0.316 µM
[9] = second compound 3.16 µM, first compound 0.0316 µM
[10] = second compound 3.16 µM, first compound 0.316 µM
[11] = second compound 10 µM, first compound 0.0316 µM
[12] = second compound 10 µM, first compound 0.316 µM
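Also: spheroids exposed to compounds for seven days.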
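For viability, T/C in this document: 100% = DMSO vehicle control viability.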

SMILES: Cn1ncnc1[C@H]1c2n[nH]c(=O)c3cc(F)cc(c23)N[C@@H]1c1ccc(F)cc1 + CN(C)c1ccc(Nc2c3ccc(NC(=O)CCN4CCCC4)cc3nc3cc(NC(=O)CCN4CCCC4)ccc23)cc1
- IC50 (second compound 0.0316 µM): > 0.316 µM
- IC50 (second compound 0.1 µM): > 0.316 µM
- IC50 (second compound 0.316 µM): > 0.316 µM
- IC50 (second compound 1 µM): > 0.316 µM
- IC50 (second compound 3.16 µM): > 0.316 µM
- IC50 (second compound 10 µM): > 0.316 µM
- viability, T/C (second compound 0.0316 µM, first compound 0.000999 µM): 106%
- viability, T/C (second compound 0.0316 µM, first compound 0.00316 µM): 94.7%
- viability, T/C (second compound 0.0316 µM, first compound 0.00999 µM): 94.2%
- viability, T/C [1]: 87%
- viability, T/C (second compound 0.0316 µM, first compound 0.0999 µM): 90.9%
- viability, T/C [2]: 80.7%
- viability, T/C (second compound 0.1 µM, first compound 0.000999 µM): 103%
- viability, T/C (second compound 0.1 µM, first compound 0.00316 µM): 94%
- viability, T/C (second compound 0.1 µM, first compound 0.00999 µM): 96.6%
- viability, T/C [3]: 89.4%
- viability, T/C (second compound 0.1 µM, first compound 0.0999 µM): 81.6%
- viability, T/C [4]: 72.3%
- viability, T/C (second compound 0.316 µM, first compound 0.000999 µM): 95.2%
- viability, T/C (second compound 0.316 µM, first compound 0.00316 µM): 97.6%
- viability, T/C (second compound 0.316 µM, first compound 0.00999 µM): 87.3%
- viability, T/C [5]: 91.7%
- viability, T/C (second compound 0.316 µM, first compound 0.0999 µM): 77.7%
- viability, T/C [6]: 71.6%
- viability, T/C (second compound 1 µM, first compound 0.000999 µM): 90%
- viability, T/C (second compound 1 µM, first compound 0.00316 µM): 84.7%
- viability, T/C (second compound 1 µM, first compound 0.00999 µM): 90.8%
- viability, T/C [7]: 66.4%
- viability, T/C (second compound 1 µM, first compound 0.0999 µM): 79.8%
- viability, T/C [8]: 64.3%
- viability, T/C (second compound 3.16 µM, first compound 0.000999 µM): 90.8%
- viability, T/C (second compound 3.16 µM, first compound 0.00316 µM): 89.9%
- viability, T/C (second compound 3.16 µM, first compound 0.00999 µM): 80.8%
- viability, T/C [9]: 62.8%
- viability, T/C (second compound 3.16 µM, first compound 0.0999 µM): 82%
- viability, T/C [10]: 64.6%
- viability, T/C (second compound 10 µM, first compound 0.000999 µM): 76.1%
- viability, T/C (second compound 10 µM, first compound 0.00316 µM): 74.6%
- viability, T/C (second compound 10 µM, first compound 0.00999 µM): 72.5%
- viability, T/C [11]: 63.8%
- viability, T/C (second compound 10 µM, first compound 0.0999 µM): 57.8%
- viability, T/C [12]: 58.9%

SMILES: O=C(c1cc(Cc2n[nH]c(=O)c3ccccc23)ccc1F)N1CCN(C(=O)C2CC2)CC1 + CN(C)c1ccc(Nc2c3ccc(NC(=O)CCN4CCCC4)cc3nc3cc(NC(=O)CCN4CCCC4)ccc23)cc1
- IC50 (second compound 0.0316 µM): > 10 µM
- IC50 (second compound 0.1 µM): > 10 µM
- IC50 (second compound 0.316 µM): > 10 µM
- IC50 (second compound 1 µM): > 10 µM
- IC50 (second compound 3.16 µM): > 10 µM
- IC50 (second compound 10 µM): > 10 µM
- viability, T/C [1]: 111%
- viability, T/C (second compound 0.0316 µM, first compound 0.1 µM): 95%
- viability, T/C [2]: 101%
- viability, T/C (second compound 0.0316 µM, first compound 1 µM): 97.3%
- viability, T/C (second compound 0.0316 µM, first compound 3.16 µM): 85.1%
- viability, T/C (second compound 0.0316 µM, first compound 10 µM): 61.4%
- viability, T/C [3]: 108%
- viability, T/C (second compound 0.1 µM, first compound 0.1 µM): 96.7%
- viability, T/C [4]: 99.3%
- viability, T/C (second compound 0.1 µM, first compound 1 µM): 93.1%
- viability, T/C (second compound 0.1 µM, first compound 3.16 µM): 79.6%
- viability, T/C (second compound 0.1 µM, first compound 10 µM): 60.8%
- viability, T/C [5]: 104%
- viability, T/C (second compound 0.316 µM, first compound 0.1 µM): 91.6%
- viability, T/C [6]: 93.6%
- viability, T/C (second compound 0.316 µM, first compound 1 µM): 88.2%
- viability, T/C (second compound 0.316 µM, first compound 3.16 µM): 82.6%
- viability, T/C (second compound 0.316 µM, first compound 10 µM): 65.1%
- viability, T/C [7]: 88.5%
- viability, T/C (second compound 1 µM, first compound 0.1 µM): 91.9%
- viability, T/C [8]: 98.2%
- viability, T/C (second compound 1 µM, first compound 1 µM): 74.5%
- viability, T/C (second compound 1 µM, first compound 3.16 µM): 70.7%
- viability, T/C (second compound 1 µM, first compound 10 µM): 59.3%
- viability, T/C [9]: 90.7%
- viability, T/C (second compound 3.16 µM, first compound 0.1 µM): 91.7%
- viability, T/C [10]: 92.7%
- viability, T/C (second compound 3.16 µM, first compound 1 µM): 74.1%
- viability, T/C (second compound 3.16 µM, first compound 3.16 µM): 75.2%
- viability, T/C (second compound 3.16 µM, first compound 10 µM): 57.1%
- viability, T/C [11]: 75.8%
- viability, T/C (second compound 10 µM, first compound 0.1 µM): 75.2%
- viability, T/C [12]: 67.9%
- viability, T/C (second compound 10 µM, first compound 1 µM): 67.4%
- viability, T/C (second compound 10 µM, first compound 3.16 µM): 63.5%
- viability, T/C (second compound 10 µM, first compound 10 µM): 51.7%
